Columns and labels:
Test in all cases: KINOMEscan competition binding
Conditions in all cases: compound 10.0 µM
ACVR1 (human) = ACVR1 (human) (UniProt Q04771)
BMPR1B (human) = BMPR1B (human) (UniProt O00238)
CAMK1G (human) = CAMK1G (human) (UniProt Q96NX5)
CAMK4 (human) = CAMK4 (human) (UniProt Q16566)
CAMKK1 (human) = CAMKK1 (human) (UniProt Q8N5S9)
CDC42BPB (human) = CDC42BPB (human) (UniProt Q9Y5S2)
CDC42BPG (human) = CDC42BPG (human) (UniProt Q6DT37)
CHUK (human) = CHUK (human) (UniProt O15111)
CSNK1A1L (human) = CSNK1A1L (human) (UniProt Q8N752)
Chain of CSNK1A1L (human) (Q8N752 whole entry, looked up): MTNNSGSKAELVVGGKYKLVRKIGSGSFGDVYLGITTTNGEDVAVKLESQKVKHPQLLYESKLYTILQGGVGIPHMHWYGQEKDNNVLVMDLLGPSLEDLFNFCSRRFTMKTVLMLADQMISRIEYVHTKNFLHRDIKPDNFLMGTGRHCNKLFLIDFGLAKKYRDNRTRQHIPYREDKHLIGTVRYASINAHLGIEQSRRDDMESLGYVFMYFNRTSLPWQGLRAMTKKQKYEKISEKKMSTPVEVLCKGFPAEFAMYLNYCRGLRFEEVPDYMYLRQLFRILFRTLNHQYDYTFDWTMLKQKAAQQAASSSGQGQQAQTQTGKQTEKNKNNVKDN

CSNK2A2 (human) = CSNK2A2 (human) (UniProt P19784)
EIF2AK2 (human) = EIF2AK2 (human) (UniProt P19525)
Chain of EIF2AK2 (human) (P19525 whole entry, looked up): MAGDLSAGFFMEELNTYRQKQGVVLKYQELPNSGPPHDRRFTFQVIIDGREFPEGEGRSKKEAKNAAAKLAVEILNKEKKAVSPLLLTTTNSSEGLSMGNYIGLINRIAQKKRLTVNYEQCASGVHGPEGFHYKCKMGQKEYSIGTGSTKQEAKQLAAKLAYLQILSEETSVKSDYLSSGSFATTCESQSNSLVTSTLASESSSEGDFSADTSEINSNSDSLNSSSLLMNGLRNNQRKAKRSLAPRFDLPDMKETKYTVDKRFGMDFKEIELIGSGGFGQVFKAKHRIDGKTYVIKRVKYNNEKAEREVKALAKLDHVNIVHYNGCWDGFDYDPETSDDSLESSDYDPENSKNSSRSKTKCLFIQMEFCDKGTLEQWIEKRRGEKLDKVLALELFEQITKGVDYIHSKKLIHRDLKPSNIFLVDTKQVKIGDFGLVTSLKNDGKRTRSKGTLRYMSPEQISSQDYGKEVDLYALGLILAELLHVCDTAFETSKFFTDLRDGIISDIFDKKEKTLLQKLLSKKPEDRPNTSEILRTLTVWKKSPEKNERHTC

EPHA1 (human) = EPHA1 (human) (UniProt P21709)
EPHA3 (human) = EPHA3 (human) (UniProt P29320)
EPHB4 (human) = EPHB4 (human) (UniProt P54760)
[1] = test system: KIT (human), P10721 [V559D]
LTK (human) = LTK (human) (UniProt P29376)
MAP4K4 (human) = MAP4K4 (human) (UniProt O95819)
MAPK13 (human) = MAPK13 (human) (UniProt O15264)
Chain of MAPK13 (human) (O15264 whole entry, looked up): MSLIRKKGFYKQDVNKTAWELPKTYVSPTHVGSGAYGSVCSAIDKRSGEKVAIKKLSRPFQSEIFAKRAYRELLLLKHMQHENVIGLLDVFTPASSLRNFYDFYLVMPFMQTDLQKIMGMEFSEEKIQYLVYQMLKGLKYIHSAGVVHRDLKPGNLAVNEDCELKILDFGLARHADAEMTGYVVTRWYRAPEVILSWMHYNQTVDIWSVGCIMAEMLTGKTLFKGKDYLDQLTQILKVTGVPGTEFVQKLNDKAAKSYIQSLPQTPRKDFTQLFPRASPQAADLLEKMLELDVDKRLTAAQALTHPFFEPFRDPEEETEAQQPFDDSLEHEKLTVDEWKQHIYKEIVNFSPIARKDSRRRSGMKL

NLK (human) = NLK (human) (UniProt Q9UBE8)
Chain of NLK (human) (Q9UBE8 whole entry, looked up): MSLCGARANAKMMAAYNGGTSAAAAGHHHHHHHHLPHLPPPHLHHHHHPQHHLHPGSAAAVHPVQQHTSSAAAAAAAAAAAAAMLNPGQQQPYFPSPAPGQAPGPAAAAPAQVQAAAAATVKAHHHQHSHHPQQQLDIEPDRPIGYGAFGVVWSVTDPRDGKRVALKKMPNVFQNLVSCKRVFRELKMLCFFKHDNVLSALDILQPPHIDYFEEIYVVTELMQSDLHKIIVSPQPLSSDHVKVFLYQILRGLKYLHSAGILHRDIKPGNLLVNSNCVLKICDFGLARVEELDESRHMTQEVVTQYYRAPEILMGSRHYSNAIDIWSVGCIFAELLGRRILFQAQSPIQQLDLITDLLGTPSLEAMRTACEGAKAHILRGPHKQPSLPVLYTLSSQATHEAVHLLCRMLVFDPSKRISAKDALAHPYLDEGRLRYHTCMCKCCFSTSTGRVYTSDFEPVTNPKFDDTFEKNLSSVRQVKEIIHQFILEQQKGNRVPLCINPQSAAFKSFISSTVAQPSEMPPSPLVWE

PAK2 (human) = PAK2 (human) (UniProt Q13177)
PHKG1 (human) = PHKG1 (human) (UniProt Q16816)
PRKAA1 (human) = PRKAA1 (human) (UniProt Q13131)
PRKCD (human) = PRKCD (human) (UniProt Q05655)
PRKCQ (human) = PRKCQ (human) (UniProt Q04759)
PRKD2 (human) = PRKD2 (human) (UniProt Q9BZL6)
PRKG2 (human) = PRKG2 (human) (UniProt Q13237)
RAF1 (human) = RAF1 (human) (UniProt P04049)
RPS6KA1 KD1 (human) = RPS6KA1 KD1 (human) (UniProt Q15418)
RPS6KA1 KD2 (human) = RPS6KA1 KD2 (human) (UniProt Q15418)
SIK1 (human) = SIK1 (human) (UniProt P57059)
SRMS (human) = SRMS (human) (UniProt Q9H3Y6)
Chain of SRMS (human) (Q9H3Y6 whole entry, looked up): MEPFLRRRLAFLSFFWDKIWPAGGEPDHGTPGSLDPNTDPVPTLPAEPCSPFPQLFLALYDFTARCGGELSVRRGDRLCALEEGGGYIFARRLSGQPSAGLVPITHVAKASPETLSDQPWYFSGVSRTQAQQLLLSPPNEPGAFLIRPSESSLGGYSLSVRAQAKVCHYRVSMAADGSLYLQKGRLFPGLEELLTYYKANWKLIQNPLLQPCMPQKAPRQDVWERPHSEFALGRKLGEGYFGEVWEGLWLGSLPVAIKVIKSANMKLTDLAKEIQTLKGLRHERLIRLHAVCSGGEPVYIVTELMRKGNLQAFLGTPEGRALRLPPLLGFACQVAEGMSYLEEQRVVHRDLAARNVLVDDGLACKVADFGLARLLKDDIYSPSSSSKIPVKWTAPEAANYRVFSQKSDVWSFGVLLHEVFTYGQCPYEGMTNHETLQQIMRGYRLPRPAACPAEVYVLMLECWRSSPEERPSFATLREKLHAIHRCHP

SRPK3 (human) = SRPK3 (human) (UniProt Q9UPE1)
TAOK3 (human) = TAOK3 (human) (UniProt Q9H2K8)
Chain of TAOK3 (human) (Q9H2K8 whole entry, looked up): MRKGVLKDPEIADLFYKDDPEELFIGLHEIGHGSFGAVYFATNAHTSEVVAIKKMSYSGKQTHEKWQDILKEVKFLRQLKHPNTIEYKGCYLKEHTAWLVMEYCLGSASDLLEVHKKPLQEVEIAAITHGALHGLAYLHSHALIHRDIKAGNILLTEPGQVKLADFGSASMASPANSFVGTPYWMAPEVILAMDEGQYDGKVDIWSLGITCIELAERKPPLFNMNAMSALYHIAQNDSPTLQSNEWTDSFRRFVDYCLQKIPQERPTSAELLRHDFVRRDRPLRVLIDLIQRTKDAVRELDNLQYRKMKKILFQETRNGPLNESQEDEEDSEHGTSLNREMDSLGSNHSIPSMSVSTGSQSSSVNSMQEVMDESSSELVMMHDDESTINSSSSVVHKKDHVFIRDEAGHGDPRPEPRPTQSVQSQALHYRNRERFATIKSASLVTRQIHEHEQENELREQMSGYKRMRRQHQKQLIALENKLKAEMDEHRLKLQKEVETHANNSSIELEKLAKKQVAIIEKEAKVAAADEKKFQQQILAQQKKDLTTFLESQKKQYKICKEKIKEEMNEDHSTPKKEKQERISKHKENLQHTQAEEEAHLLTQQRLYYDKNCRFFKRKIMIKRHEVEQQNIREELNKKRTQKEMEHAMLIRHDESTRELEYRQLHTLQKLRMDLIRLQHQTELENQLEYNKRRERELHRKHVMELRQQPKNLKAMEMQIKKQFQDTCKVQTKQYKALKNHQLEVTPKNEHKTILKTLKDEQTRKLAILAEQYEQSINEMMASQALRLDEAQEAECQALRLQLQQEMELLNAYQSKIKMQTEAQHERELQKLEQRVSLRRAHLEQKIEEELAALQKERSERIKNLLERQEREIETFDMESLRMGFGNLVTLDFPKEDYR

TESK1 (human) = TESK1 (human) (UniProt Q15569)
Chain of TESK1 (human) (Q15569 whole entry, looked up): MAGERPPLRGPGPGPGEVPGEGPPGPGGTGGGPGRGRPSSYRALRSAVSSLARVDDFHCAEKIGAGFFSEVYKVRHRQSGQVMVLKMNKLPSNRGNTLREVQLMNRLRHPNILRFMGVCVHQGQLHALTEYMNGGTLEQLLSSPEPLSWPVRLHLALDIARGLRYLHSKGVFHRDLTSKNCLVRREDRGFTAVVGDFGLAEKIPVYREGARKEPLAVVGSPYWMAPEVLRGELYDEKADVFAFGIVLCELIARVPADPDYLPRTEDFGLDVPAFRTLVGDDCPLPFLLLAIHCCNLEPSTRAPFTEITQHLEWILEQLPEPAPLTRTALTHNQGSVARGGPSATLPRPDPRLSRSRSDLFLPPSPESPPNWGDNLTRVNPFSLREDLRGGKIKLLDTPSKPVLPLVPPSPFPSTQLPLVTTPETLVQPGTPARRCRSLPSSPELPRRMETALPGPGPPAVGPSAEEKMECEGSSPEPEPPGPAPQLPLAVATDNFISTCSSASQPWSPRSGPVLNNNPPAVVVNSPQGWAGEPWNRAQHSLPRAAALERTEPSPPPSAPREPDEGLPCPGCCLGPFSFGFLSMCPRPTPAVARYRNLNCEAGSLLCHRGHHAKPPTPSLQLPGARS

TLK1 (human) = TLK1 (human) (UniProt Q9UKI8)
TNK2 (human) = TNK2 (human) (UniProt Q07912)
TNNI3K (human) = TNNI3K (human) (UniProt Q59H18)
TSSK1B (human) = TSSK1B (human) (UniProt Q9BXA7)
TTK (human) = TTK (human) (UniProt P33981)
[2] = molecular target: TYK2 JH1 catalytic (human) (UniProt P29597)

Chain of BMPR1B (human) (O00238 whole entry, looked up): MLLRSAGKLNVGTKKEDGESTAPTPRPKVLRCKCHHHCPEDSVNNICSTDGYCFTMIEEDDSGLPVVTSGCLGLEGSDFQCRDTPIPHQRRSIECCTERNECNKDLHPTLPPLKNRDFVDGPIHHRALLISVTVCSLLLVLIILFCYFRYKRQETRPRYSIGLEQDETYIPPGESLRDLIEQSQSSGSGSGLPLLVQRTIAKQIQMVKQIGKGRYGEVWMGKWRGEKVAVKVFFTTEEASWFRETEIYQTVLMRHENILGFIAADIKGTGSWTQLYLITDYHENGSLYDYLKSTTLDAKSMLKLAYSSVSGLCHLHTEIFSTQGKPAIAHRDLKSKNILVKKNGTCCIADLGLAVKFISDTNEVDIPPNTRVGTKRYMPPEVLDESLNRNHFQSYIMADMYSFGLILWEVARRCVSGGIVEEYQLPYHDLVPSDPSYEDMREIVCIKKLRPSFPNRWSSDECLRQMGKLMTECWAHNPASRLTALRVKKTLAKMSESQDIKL
Chain of CAMK1G (human) (Q96NX5 whole entry, looked up): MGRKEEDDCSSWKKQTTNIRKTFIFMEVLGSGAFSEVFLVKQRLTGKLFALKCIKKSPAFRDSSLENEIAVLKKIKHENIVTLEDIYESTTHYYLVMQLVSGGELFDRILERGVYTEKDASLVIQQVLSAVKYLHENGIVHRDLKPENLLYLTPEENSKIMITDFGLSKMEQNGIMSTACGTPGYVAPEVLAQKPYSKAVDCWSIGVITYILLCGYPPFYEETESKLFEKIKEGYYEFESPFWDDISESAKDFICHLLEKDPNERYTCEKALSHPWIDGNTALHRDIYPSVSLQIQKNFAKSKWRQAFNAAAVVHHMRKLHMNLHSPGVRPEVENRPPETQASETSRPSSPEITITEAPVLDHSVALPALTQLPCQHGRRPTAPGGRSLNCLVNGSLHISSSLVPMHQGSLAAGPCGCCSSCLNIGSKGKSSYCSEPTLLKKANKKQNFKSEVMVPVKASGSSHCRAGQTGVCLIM

Row | Structure (SMILES) | kinase still bound, per cent of control (ACVR1 (human)) | kinase still bound, per cent of control (BMPR1B (human)) | kinase still bound, per cent of control (CAMK1G (human)) | kinase still bound, per cent of control (CAMK4 (human)) | kinase still bound, per cent of control (CAMKK1 (human)) | kinase still bound, per cent of control (CDC42BPB (human)) | kinase still bound, per cent of control (CDC42BPG (human)) | kinase still bound, per cent of control (CHUK (human)) | kinase still bound, per cent of control (CSNK1A1L (human)) | kinase still bound, per cent of control (CSNK2A2 (human)) | kinase still bound, per cent of control (EIF2AK2 (human)) | kinase still bound, per cent of control (EPHA1 (human)) | kinase still bound, per cent of control (EPHA3 (human)) | kinase still bound, per cent of control (EPHB4 (human)) | kinase still bound, per cent of control [1] | kinase still bound, per cent of control (LTK (human)) | kinase still bound, per cent of control (MAP4K4 (human)) | kinase still bound, per cent of control (MAPK13 (human)) | kinase still bound, per cent of control (NLK (human)) | kinase still bound, per cent of control (PAK2 (human)) | also measured
1 | COc1cc(C(=O)NC2CCN(C)CC2)ccc1Nc1ncc2c(n1)N(C1CCCC1)C(C)CC(=O)N2C (stereo not given) | 100% | 100% | 100% | 100% | 100% | 100% | 100% | 100% | 100% | 100% | 100% | 100% | 100% | 100% | 100% | 100% | 100% | 100% | 100% | 100% | kinase still bound, per cent of control (PHKG1 (human)): 100%; kinase still bound, per cent of control (PRKAA1 (human)): 100%; kinase still bound, per cent of control (PRKCD (human)): 100%; kinase still bound, per cent of control (PRKCQ (human)): 100%; kinase still bound, per cent of control (PRKD2 (human)): 100%; kinase still bound, per cent of control (PRKG2 (human)): 100%; kinase still bound, per cent of control (RAF1 (human)): 100%; kinase still bound, per cent of control (RPS6KA1 KD1 (human)): 100%; kinase still bound, per cent of control (RPS6KA1 KD2 (human)): 22%; kinase still bound, per cent of control (SIK1 (human)): 100%; kinase still bound, per cent of control (SRMS (human)): 100%; kinase still bound, per cent of control (SRPK3 (human)): 100%; kinase still bound, per cent of control (TAOK3 (human)): 100%; kinase still bound, per cent of control (TESK1 (human)): 100%; kinase still bound, per cent of control (TLK1 (human)): 100%; kinase still bound, per cent of control (TNK2 (human)): 100%; kinase still bound, per cent of control (TNNI3K (human)): 100%; kinase still bound, per cent of control (TSSK1B (human)): 100%; kinase still bound, per cent of control (TTK (human)): 4.6%; kinase still bound, per cent of control [2]: 100%
2 | COc1cc(N2CCN(C)CC2)ccc1Nc1nc(N)c(C(=O)c2c(Cl)cccc2Cl)s1 | 100% | 90% | 42% | 99% | 6.3% | 100% | 100% | 58% | 100% | 88% | 75% | 100% | 82% | 97% | 100% | 4.2% | 76% | 63% | 85% | 100% | kinase still bound, per cent of control (PHKG1 (human)): 82%; kinase still bound, per cent of control (PRKAA1 (human)): 81%; kinase still bound, per cent of control (PRKCD (human)): 68%; kinase still bound, per cent of control (PRKCQ (human)): 54%; kinase still bound, per cent of control (PRKD2 (human)): 78%; kinase still bound, per cent of control (PRKG2 (human)): 74%; kinase still bound, per cent of control (RAF1 (human)): 100%; kinase still bound, per cent of control (RPS6KA1 KD1 (human)): 100%; kinase still bound, per cent of control (RPS6KA1 KD2 (human)): 58%; kinase still bound, per cent of control (SIK1 (human)): 86%; kinase still bound, per cent of control (SRMS (human)): 71%; kinase still bound, per cent of control (SRPK3 (human)): 77%; kinase still bound, per cent of control (TAOK3 (human)): 12%; kinase still bound, per cent of control (TESK1 (human)): 100%; kinase still bound, per cent of control (TLK1 (human)): 86%; kinase still bound, per cent of control (TNK2 (human)): 97%; kinase still bound, per cent of control (TNNI3K (human)): 82%; kinase still bound, per cent of control (TSSK1B (human)): 87%; kinase still bound, per cent of control (TTK (human)): 20%; kinase still bound, per cent of control [2]: 90%
3 | Cc1cc([C@@H](C)Nc2ccccc2C(=O)O)c2nc(N3CCOCC3)cc(=O)n2c1 | 98% | 69% | 91% | 100% | 98% | 100% | 100% | 100% | 100% | 100% | 99% | 100% | 79% | 96% | 91% | 95% | 97% | 87% | 94% | 100% | kinase still bound, per cent of control (PHKG1 (human)): 93%; kinase still bound, per cent of control (PRKAA1 (human)): 100%; kinase still bound, per cent of control (PRKCD (human)): 82%; kinase still bound, per cent of control (PRKCQ (human)): 97%; kinase still bound, per cent of control (PRKD2 (human)): 100%; kinase still bound, per cent of control (PRKG2 (human)): 98%; kinase still bound, per cent of control (RAF1 (human)): 100%; kinase still bound, per cent of control (RPS6KA1 KD1 (human)): 73%; kinase still bound, per cent of control (RPS6KA1 KD2 (human)): 84%; kinase still bound, per cent of control (SIK1 (human)): 100%; kinase still bound, per cent of control (SRMS (human)): 63%; kinase still bound, per cent of control (SRPK3 (human)): 100%; kinase still bound, per cent of control (TAOK3 (human)): 100%; kinase still bound, per cent of control (TESK1 (human)): 100%; kinase still bound, per cent of control (TLK1 (human)): 96%; kinase still bound, per cent of control (TNK2 (human)): 100%; kinase still bound, per cent of control (TNNI3K (human)): 88%; kinase still bound, per cent of control (TSSK1B (human)): 100%; kinase still bound, per cent of control (TTK (human)): 100%; kinase still bound, per cent of control [2]: 82%

Reference: the kinase profiling compilation of Christmann-Franck et al. (2016)
